Source: patent US12527782B2, “Use of hexokinase 2/mitochondria-detaching compounds for treating hexokinase-2 (HK2)-expressing cancers” (Vidac Pharma Ltd., priority 2016, dated 2026)
Where “and” joins values, the source holds several entries; their conditions need not be identical. Equal values may be shown once.

How the values were obtained:
[1] = tested on: AK lesions; test: Phase 2a in subjects with actinic keratosis, efficacy (lesion count); assay type: in vivo, human
Procedure: (§1) The Phase 2 clinical trial was a multiple-center randomized, double-blind, placebo-controlled, parallel-cohorts study to evaluate the efficacy, safety, tolerability, and pharmacokinetics of once-daily application of topical Formula C ointment (QD 200 mg) for 28 days in subjects with actinic keratosis. Subjects were followed for one or two months after they completed treatment (through day 56 or day 84). The primary and exploratory efficacy endpoints for the study were reduction in the number of lesions on days 56 and 84, respectively. Subjects were randomly assigned in a double-blind fashion to one of three parallel treatment cohorts (5%, or 10% Formula C, or placebo) at a ratio of 1:1:1. To qualify for the study, subjects aged 18 (inclusive) or older must have had 4-8 discrete Grade 1 or 2 AK lesions within a 25-centimeter squared area of the skin of their scalp or face. The study enrolled 93 subjects in the US and Israel.

[2] = tested on: Lymphoma (Non-Hodgkin) LYXFNH RAJI; test: CFA, LYXFNH RAJI; assay type: cell-based, human; settings: Cell line/CFA
Procedure: (§2) CFA was performed by Charles River Laboratories (Freiburg, Germany) in 96-well plate format according to a modified two-layer soft agar assay. The origin of the tumor xenografts has been described (Fiebig et al. 1989, incorporated herein by reference). The list of tumors used in this study is detailed in Table 1.

[3] = tested on: Stomach GXF 214; test: CFA, GXF 214; assay type: cell-based, human; settings: PDX/CFA
Procedure: as §2

[4] = tested on: Skin SCC VXF A-431; test: CFA, VXF A-431; assay type: cell-based, human; settings: Cell line/CFA
Procedure: as §2

[5] = tested on: Kidney RXF 1220; test: CFA, RXF 1220; assay type: cell-based, human; settings: PDX/CFA
Procedure: as §2

[6] = tested on: Breast MAXF 401; test: CFA, MAXF 401; assay type: cell-based, human; settings: PDX/CFA
Procedure: as §2

[7] = tested on: Head & Neck HNXF 2205; test: CFA, HNXF 2205; assay type: cell-based, human; settings: PDX/CFA
Procedure: as §2

[8] = tested on: Cutanous T cell lymphoma HH; test: XTT cell viability assay, HH; assay type: cell-based, human; settings: Cell line/XTT
Procedure: (§3) For XTT assays, cells were plated in 96-well plates (5,000 cells per well) for 24 hours. Cells were then incubated with different concentrations of Formula C in triplicates for 72 hr in DMEM supplemented with 0.5% FCS and 5 mM Glucose. Cell viability was evaluated using 2,3-bis-(2-methoxy-4-nitro-5-sulfophenyl)-2H-tetrazolium-5-carboxanilide (XTT)-based colorimetric assay kit (Biological Industries Ltd., Kibbutz Beit-Haemek, Israel). The optical density was measured by an Infinite 200 ELISA reader at 450 nm and reference was measured at 630 nm (Tecan, Männedorf, Switzerland).

[9] = tested on: Skin SCC SKXF 1834; test: CFA, SKXF 1834; assay type: cell-based, human; settings: PDX/CFA
Procedure: as §2

[10] = target: T1, VDAC1/HK1 complex (Homo sapiens, UniProt P19367); test: Microscale Thermophoresis (MST) dissociation of VDAC1/HK1 complex; assay type: binding; settings: cell-free MST
T1 construct: host or cells: E. coli (HK1); sheep liver mitochondria (VDAC1)
T1 sequence (P19367 whole entry, one chain of several): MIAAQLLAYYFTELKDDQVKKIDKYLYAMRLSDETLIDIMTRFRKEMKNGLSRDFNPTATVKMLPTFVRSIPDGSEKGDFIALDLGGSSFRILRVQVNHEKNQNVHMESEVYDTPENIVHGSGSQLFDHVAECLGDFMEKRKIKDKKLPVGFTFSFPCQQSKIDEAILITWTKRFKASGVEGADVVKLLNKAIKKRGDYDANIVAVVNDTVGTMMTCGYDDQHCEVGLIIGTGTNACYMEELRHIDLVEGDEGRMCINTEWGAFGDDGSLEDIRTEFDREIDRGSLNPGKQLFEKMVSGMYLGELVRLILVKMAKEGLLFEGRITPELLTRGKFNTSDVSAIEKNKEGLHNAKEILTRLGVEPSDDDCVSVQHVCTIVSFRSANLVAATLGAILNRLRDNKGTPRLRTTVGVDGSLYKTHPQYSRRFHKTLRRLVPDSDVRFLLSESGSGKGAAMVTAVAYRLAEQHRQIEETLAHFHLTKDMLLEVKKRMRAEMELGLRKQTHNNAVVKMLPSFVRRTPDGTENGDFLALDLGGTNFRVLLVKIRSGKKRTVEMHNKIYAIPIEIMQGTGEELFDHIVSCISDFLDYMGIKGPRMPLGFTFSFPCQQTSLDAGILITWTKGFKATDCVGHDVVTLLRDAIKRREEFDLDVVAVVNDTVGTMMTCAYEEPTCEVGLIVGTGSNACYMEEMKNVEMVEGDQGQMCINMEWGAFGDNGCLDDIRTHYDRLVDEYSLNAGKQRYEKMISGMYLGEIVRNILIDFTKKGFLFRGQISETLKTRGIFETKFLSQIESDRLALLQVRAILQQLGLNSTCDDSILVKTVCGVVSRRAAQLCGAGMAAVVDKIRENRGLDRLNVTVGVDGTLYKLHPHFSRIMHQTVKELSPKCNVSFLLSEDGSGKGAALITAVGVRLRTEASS
Procedure: (§4) A431 (human skin SCC), HT-297.T (human AK), and HaCaT transformed normal keratinocyte cell lines were from ATCC (Manassas, VA) and were maintained in DMEM supplemented with 10% FCS, 4 mM L-Gln, 1 mM sodium pyruvate, 100 U/mL penicillin, 1 μg/mL streptomycin. Human HK1 and HK2 plasmids were purchased from Addgene (Cambridge, MA) and were purified from E. Coli. VDAC1 was purified from sheep liver mitochondria as described (Arbel et al. 2012, incorporated herein by reference). Human skin tissue microarray (SK208 and SK 805) were purchased from US Biomax Inc. (Rockville, MD).
Studies were conducted on Nanotemper Monolith NT.115 (Munich, Germany). HK1 and HK2 were labeled using Monolith™ NT.115 Protein Labeling Kit BLUE-NHS. As a preliminary study to form the VDAC1-HK complexes, various concentrations of VDAC1 were added to 67 nM HK1 or 71 nM HK2. The preferred VDAC1 concentration was determined to be 1.5 μM. For dissociation studies, HKs were pre-incubated with VDAC1 for 10 minutes and various concentrations of Formula C were added for an additional 10 minutes. MST default parameters were used and analysis was with Nanotemper analysis software. […]
The activity of Formula C in a cell-free assay was evaluated using Microscale Thermophoresis (MST) analysis, which is based on altered movement of a protein in a temperature gradient when bound to other molecules. […]

[11] = tested on: HaCaT normal immortal keratonocytes; test: XTT cell viability assay, HaCaT; assay type: cell-based, human; settings: Cell line/XTT, 72 hr
Procedure: as §4, §3

[12] = tested on: Prostate PC-3; test: XTT cell viability assay, PC-3; assay type: cell-based, human; settings: Cell line/XTT
Procedure: as §3

[13] = tested on: Cutanous T cell lymphoma MyLa; test: CFA, MyLa; assay type: cell-based, human; settings: Cell line/CFA
Procedure: as §2

[14] = Phase 2a in subjects with actinic keratosis, safety; assay type: in vivo, human
Procedure: as §1

[15] = tested on: Leukemia (BCLL) LEXFCL MEC-1; test: CFA, LEXFCL MEC-1; assay type: cell-based, human; settings: Cell line/CFA
Procedure: as §2

[16] = tested on: Lung (NSCLC, epidermoid) LXFE 690; test: CFA, LXFE 690; assay type: cell-based, human; settings: PDX/CFA
Procedure: as §2

[17] = tested on: Lung (NSCLC, large) LXFL 430; test: CFA, LXFL 430; assay type: cell-based, human; settings: PDX/CFA
Procedure: as §2

[18] = tested on: Leukemia (AML) LEXFAM OCI-AML2; test: CFA, LEXFAM OCI-AML2; assay type: cell-based, human; settings: Cell line/CFA
Procedure: as §2

[19] = tested on: Head & Neck HNXF 536; test: CFA, HNXF 536; assay type: cell-based, human; settings: PDX/CFA
Procedure: as §2

With `CC/C=C\CC1C(=O)CCC1CC(=O)Oc1cccc2cccnc12` (centres unmarked) [Formula C] the “mean reduction in total lesion count from baseline on Day 56” value ([1]; ITT-face subgroup, 10% ointment, adjusted to age and gender, P=0.023 vs Placebo) was 38.8%±36.4%, the “median reduction in total lesion count” value ([1]; PP-face subgroup, 10% ointment) was 50.0% and the “mean reduction in total lesion count from baseline on Day 56” value ([1]; full ITT population (face or scalp), 10% ointment QD 200 mg 28 days, adjusted by site, age, gender, treatment field location) was 32.1%±34.1%. For the same molecule, the “median reduction in total lesion count from baseline on Day 56” value ([1]; full Per Protocol (PP) population, 10% ointment) was 25.0%, the IC50 [2] was 1380 nM and the IC50 [3] was 1940 nM. The IC50 [4] was 364 nM, the IC50 [5] was 6330 nM and the IC50 [6] was 4220 nM. It also gave an IC50 [7] of 3960 nM, an IC50 [8] of 604 nM and an IC50 [9] of 742 nM. For the same molecule, the “effect on the VDAC1/HK1 complex” value [10] was “no effect”, the IC50 [11] was 3370 nM and the IC50 [12] was 1200 nM. The IC50 [13] was < 1000 nM, the “serious adverse events (deemed unrelated)” value ([14]; 5% group) was 1 elective surgery and the “treatment-emergent AEs deemed related to the study drug” value ([14]; 5% group, listed as VDA-1102) was 1 mild dyspepsia and 1 mild hypopigmentation. For the same molecule, the “serious adverse events (deemed unrelated)” value ([14]; 10% group) was 1 acute pneumonia, the “clinically significant changes at application sites (Local Skin Reactions), vital signs, physical examinations, clinical laboratory results, ECGs” value ([14]; any subject, any time point) was “No clinically significant changes” and the safety signals ([14]; subjects with AK, 5% or 10% ointment QD 28 days) was “No safety signals”. The IC50 [15] was 1160 nM, the IC50 [16] was 6820 nM and the IC50 [17] was 237 nM. For the same molecule, the IC50 [18] was 985 nM and the IC50 [19] was 1440 nM.
